Several values for one entry are separate records, joined by “and”; a condition that tells them apart may be missing. Identical values can stand only once.
Test system: adult subjects with Major Depressive Disorder
Assay: Phase 3 open-label 1-year study: need for re-treatment (number of and time to re-treatments)
Assay type: in vivo, human
Conditions: for Subjects with No re-treatment (Cycle 1), n (%) / Subjects with Only 1 re-treatment (Cycle 2), n (%) / Subjects with Only 2 re-treatment (Cycle 3), n (%) / Subjects with Only 3 re-treatment (Cycle 4), n (%) / Subjects with Only 4 re-treatment (Cycle 5), n (%): FAS; for Time to re-treatment, Mean (SD): Low Dose Cohort (FAS)
Text: Secondary Objective: To assess the need for re-treatment with Compound (1) following initial treatment in adults with MDD currently experiencing an MDE over a 1-year period, and to assess the response of initial treatment and re-treatment(s) with Compound (1) following an initial 2-week treatment period in adults with MDD currently experiencing an MDE over a 1-year period.
Secondary Endpoints: The need for re-treatment with Compound (1) as assessed by: time to first re-treatment (Kaplan-Meier curves), number of subjects achieving the requirements for re-treatment, number of re-treatment cycles for each subject, the response of initial treatment and/or re-treatment as assessed by: change from baseline in the 17-item Hamilton Rating Scale for Depression (HAM-D) total score at the end of each 14-day treatment (initial and/or re-treatment) period, HAM-D response at the end of each 14-day treatment (initial and/or re-treatment) period, defined as a ≥50% reduction in HAM-D score from baseline, HAM-D remission at the end of each 14-day treatment (initial and/or re-treatment) period, defined as HAM-D total score≤7, Clinical Global Impression-Improvement (CGI-I) response, defined as “much improved” or “very much improved”, at the end of each 14-day treatment (initial and/or re-treatment) period, change from baseline in Clinical Global Impression-Severity (CGI-S) score at the end of each 14-day treatment (initial and/or re-treatment) period.
Subjects who continued in the Observation Period were monitored remotely via PHQ-9 assessment every two weeks. If PHQ-9 score was >=10 at any assessment, PHQ-9 assessment was switch to every week until the score came down below 10 or the subject was dosed with Compound (1) in a subsequent cycle, whichever was earlier. A subject was to come back to the site for HAM-D assessment within a week of PHQ-9 score >=10; if the HAM-D total score >=20 and at least 56 days had elapsed since the last dose of Compound (1), another dosing cycle of Compound (1) were to start. If any of these criteria were not met, the subject couldn't be treated with Compound (1) at that time. Without the trigger of PHQ-9>=10 the subject was to have a clinic visit every 8 weeks. A subject could have at most 5 cycles of treatment within a year. FIG. 2 is a depiction of the eligibility criteria of the study.
The cohorts pertaining to the different doses that the subjects received were defined as following: • 50 mg cohort: This cohort includes subjects who have initiated treatment with 50 mg and received re-treatment with 50 mg only. • 30 mg cohort: This cohort includes subjects who have initiated treatment with 30 mg regardless of the dose they have received in re-treatments. • Low dose cohort: This cohort includes subjects who have initiated treatment with 30 mg and received re-treatment with 30 mg only. • Dose switch cohort: This cohort includes subjects who have received initial treatment with 30 mg and at least one subsequent re-treatment with 50 mg. • Study Period X: starts on the date of the first dose of Compound (1) in cycle X and goes up to one day prior to the first dose of the next cycle. In some embodiments, X is any number from 1 to 5. • Treatment Period X: starts on the date of the first dose of Compound (1) in cycle X and goes up to one day after the last dose in cycle X. In some embodiments, X is any number from 1 to 5. • Treatment Cycle X: starts on the date of the first dose of Compound (1) in cycle X and goes up to 14 days after the last dose in cycle X. The treatment cycles may be denoted as C1-C5. • Observation period X: starts the day after Treatment Cycle X ends and goes up to one day prior to the start of next treatment cycle. In some embodiments, X is any number from 1 to 5.
Analysis Sets: The safety set was defined as all subjects who were administered study drug. The period-specific safety set includes subjects in the safety set who were administered study drug in the corresponding treatment cycle. […]

[1] = ATD Use at Baseline = No, 30 mg Cohort (N = 280)
[2] = ATD Use at Baseline = No, 50 mg Cohort (N = 86)
[3] = ATD Use at Baseline = Yes, 30 mg Cohort (N = 209)
[4] = ATD Use at Baseline = Yes, 50 mg Cohort (N = 60)

C[C@@]1(O)CC[C@H]2[C@H](CC[C@@H]3[C@@H]2CC[C@]2(C)[C@@H](C(=O)Cn4cc(C#N)cn4)CC[C@@H]32)C1 [Compound (1), 1-(2-((3R,5R,8R,9R,10S,13S,14S,17S)-3-hydroxy-3,13-dimethylhexadecahydro-1H-cyclopenta[a]phenanthren-17-yl)-2-oxoethyl)-1H-pyrazole-4-carbonitrile]
Time to re-treatment since last dose in previous cycle, Median (Cycle 5, Dose Switch (FAS)): 58 days | Time to re-treatment since last dose in previous cycle, Min - Max (Cycle 5, Dose Switch (FAS)): 57 to 79 days | n/N: FAS subjects eligible and dosed in Cycle X / eligible for dosing in Cycle X (Cycle 5, Low Dose): 20/34 | Time to re-treatment since last dose in previous cycle, Mean (SD) (Cycle 5, Low Dose (FAS)): 63.2 (7.42) Days | Time to re-treatment since last dose in previous cycle, Median (Cycle 5, Low Dose (FAS)): 60.5 days | Time to re-treatment since last dose in previous cycle, Min - Max (Cycle 5, Low Dose (FAS)): 58 to 86 days | Dosed in at least 1 re-treatment cycle, % of eligible (Dose Switch (80 eligible)): 80 (100%) | Qualified to be retreated in at least 1 more cycle (HAM-D total score >= 20), % of eligible (Dose Switch (80 eligible)): 80 (100%) | Subjects with No re-treatment (Cycle 1), n (%) of FAS (Dose Switch (N = 80)): 0% | Subjects with Only 1 re-treatment (Cycle 2), n (%) of FAS (Dose Switch (N = 80)): 9 (11.3%) | Subjects with Only 2 re-treatment (Cycle 3), n (%) of FAS (Dose Switch (N = 80)): 18 (22.5%) | Subjects with Only 3 re-treatment (Cycle 4), n (%) of FAS (Dose Switch (N = 80)): 30 (37.5%) | Subjects with Only 4 re-treatment (Cycle 5), n (%) of FAS (Dose Switch (N = 80)): 23 (28.8%) | Average (range) number of re-treatments per subject over 1-year follow-up (Dose Switch Cohort): 2.8 (1-4) | FAS Subjects Dosed in C2, n (%) of FAS (Dose Switch Cohort): 80 (100%) | FAS Subjects dosed in C3, n (%) of FAS (Dose Switch Cohort): 71 (88.8%) | FAS Subjects dosed in C4, n (%) of FAS (Dose Switch Cohort): 53 (66.3%) | FAS Subjects dosed in C5, n (%) of FAS (Dose Switch Cohort): 23 (28.8%) | Subjects with No re-treatment (Cycle 1), n (%) [1]: 114 (40.7%) | Subjects with Only 1 re-treatment (Cycle 2), n (%) [1]: 80 (28.6%) | Subjects with Only 2 re-treatment (Cycle 3), n (%) [1]: 31 (11.1%) | Subjects with Only 3 re-treatment (Cycle 4), n (%) [1]: 33 (11.8%) | Subjects with Only 4 re-treatment (Cycle 5), n (%) [1]: 22 (7.9%) | Subjects with No re-treatment (Cycle 1), n (%) [2]: 72 (83.7%) | Subjects with Only 1 re-treatment (Cycle 2), n (%) [2]: 13 (15.1%) | Subjects with Only 2 re-treatment (Cycle 3), n (%) [2]: 1 (1.2%) | Subjects with Only 3 re-treatment (Cycle 4), n (%) [2]: 0% | Subjects with Only 4 re-treatment (Cycle 5), n (%) [2]: 0% | Subjects with No re-treatment (Cycle 1), n (%) [3]: 96 (45.9%) | Subjects with Only 1 re-treatment (Cycle 2), n (%) [3]: 45 (21.5%) | Subjects with Only 2 re-treatment (Cycle 3), n (%) [3]: 27 (12.9%) | Subjects with Only 3 re-treatment (Cycle 4), n (%) [3]: 20 (9.6%) | Subjects with Only 4 re-treatment (Cycle 5), n (%) [3]: 21 (10.0%) | Subjects with No re-treatment (Cycle 1), n (%) [4]: 48 (80.0%) | Subjects with Only 1 re-treatment (Cycle 2), n (%) [4]: 12 (20.0%) | Subjects with Only 2 re-treatment (Cycle 3), n (%) [4]: 0% | Dosed in at least 1 re-treatment cycle, % of eligible (Low Dose (199 of 392 eligible)): 199 0.8%) and 199 (0.8%) | Qualified to be retreated in at least 1 more cycle (HAM-D total score >= 20), % of eligible (Low Dose (392 eligible)): 225 (57.4%) | Subjects with No re-treatment (Cycle 1), n (%) of FAS (Low Dose (N = 409)): 210 (51.3%) | Subjects with Only 1 re-treatment (Cycle 2), n (%) of FAS (Low Dose (N = 409)): 116 (28.4%) | Subjects with Only 2 re-treatment (Cycle 3), n (%) of FAS (Low Dose (N = 409)): 40 (9.8%) and 40 (9.7%) | Subjects with Only 3 re-treatment (Cycle 4), n (%) of FAS (Low Dose (N = 409)): 23 (5.6%) | Subjects with Only 4 re-treatment (Cycle 5), n (%) of FAS (Low Dose (N = 409)): 20 (4.9%) | Average (range) number of re-treatments per subject over 1-year follow-up (Low Dose Cohort): 0.8 (0-4) and 0.8 | Average total number of treatments per subject (Low Dose Cohort): 1.8 | Effect of antidepressant use on length of time between re-treatments (Low Dose Cohort): did not make much difference | FAS Subjects Dosed in C2, n (%) of FAS (Low Dose Cohort): 199 (48.7%) | FAS Subjects dosed in C3, n (%) of FAS (Low Dose Cohort): 83 (20.3%) | FAS Subjects dosed in C4, n (%) of FAS (Low Dose Cohort): 43 (10.5%) | FAS Subjects dosed in C5, n (%) of FAS (Low Dose Cohort): 20 (4.9%) | Time to re-treatment, Mean (SD) (dosed in Cycle 2, ATD use at baseline of previous cycle No): 97.2 (49.59) Days and 97.2 Days | Time to re-treatment, Mean (SD) (dosed in Cycle 2, ATD use at baseline of previous cycle Yes): 103.3 (56.26) Days and 103.3 Days | Time to re-treatment, Mean (SD) (dosed in Cycle 3, ATD use at baseline of previous cycle No): 88.4 (37.52) Days and 88.4 Days | Time to re-treatment, Mean (SD) (dosed in Cycle 3, ATD use at baseline of previous cycle Yes): 85.9 (32.14) Days and 85.9 Days | Time to re-treatment, Mean (SD) (dosed in Cycle 4, ATD use at baseline of previous cycle No): 73.0 (18.40) Days and 73.0 Days | Time to re-treatment, Mean (SD) (dosed in Cycle 4, ATD use at baseline of previous cycle Yes): 71.1 (17.21) Days and 71.1 Days | Time to re-treatment, Mean (SD) (dosed in Cycle 5, ATD use at baseline of previous cycle No): 61.9 (3.28) Days and 61.9 Days | Time to re-treatment, Mean (SD) (dosed in Cycle 5, ATD use at baseline of previous cycle Yes): 64.5 (10.09) Days and 64.5 Days | Re-treatment rates with and without pre-existing antidepressant therapy (in vivo): similar | Mean (range) number of total treatment courses (overall study population): 1.8 (1-5) | Patients not requiring additional treatment courses during their time in the study (overall study population): 43.7%

— US20240245711A1, “A 19-NOR C3,3-DISUBSTITUTED C21-N-PYRAZOLYL STEROID FOR THE TREATMENT OF MAJOR DEPRESSIVE DISORDER” (Sage Therapeutics, Inc., priority 2021, published 2024)
